From ChEMBL document CHEMBL4342407, “Thieno[2,3-d]pyrimidine as a promising scaffold in medicinal chemistry: Recent advances” (Bioorg Med Chem, 2019)
Values after ≈ are worked out from the molar mass of the structure shown. Values belong to the compound of their own block, whether it stands above or below them.

How the values were obtained:
[1] = system: Bacillus subtilis; assay: Antibacterial activity against Bacillus subtilis ATCC 6633 assessed as diameter of zone inhibition at 100 ug/ml; assay type: functional; settings: read-out: DIZ
[2] = system: Staphylococcus aureus; assay: Antibacterial activity against Staphylococcus aureus ATCC 25923 assessed as diameter of zone inhibition at 100 ug/ml; assay type: functional; settings: read-out: DIZ
[3] = system: Escherichia coli; assay: Antibacterial activity against Escherichia coli ATCC 25922 assessed as diameter of zone inhibition at 100 ug/ml; assay type: functional; settings: read-out: DIZ
[4] = system: Aspergillus niger; assay: Antifungal activity against Aspergillus niger incubated for 24 to 72 hrs by Serial dilution method; assay type: functional
[5] = system: MDA-MB-453; assay: Antiproliferative activity against human MDA-MB-453 after 48 hrs by MTT assay; assay type: functional; settings: MDA-MB-453, 48 h
[6] = system: A549; assay: Antiproliferative activity against human A549 after 48 hrs by MTT assay; assay type: functional; settings: A549, 48 h
[7] = system: HT-29; assay: Antiproliferative activity against human HT-29 after 48 hrs by MTT assay; assay type: functional; settings: HT-29, 48 h
[8] = system: BT-549; assay: Antiproliferative activity against human BT549 after 48 hrs by MTT assay; assay type: functional; settings: BT-549, 48 h
[9] = system: DU-145; assay: Antiproliferative activity against human DU145 after 48 hrs by MTT assay; assay type: functional; settings: DU-145, 48 h
[10] = system: HCT-116; assay: Antiproliferative activity against human HCT116 after 48 hrs by MTT assay; assay type: functional; settings: HCT-116, 48 h
[11] = system: HCT-15; assay: Antiproliferative activity against human HCT15 after 48 hrs by MTT assay; assay type: functional; settings: HCT-15, 48 h
[12] = system: MCF7; assay: Antiproliferative activity against human MCF7 after 48 hrs by MTT assay; assay type: functional; settings: MCF7, 48 h
[13] = system: Aspergillus niger; assay: Antifungal activity against Aspergillus niger assessed as diameter of zone inhibition at 0.1% incubated for 24 hrs by stiff plate agar diffusion method; assay type: functional
[14] = system: Aspergillus niger; assay: Antifungal activity against Aspergillus niger assessed as diameter of zone inhibition at 0.5% incubated for 24 hrs by stiff plate agar diffusion method; assay type: functional
[15] = system: Escherichia coli; assay: Antibacterial activity against Escherichia coli assessed as diameter of zone inhibition at 0.5% incubated for 24 hrs by stiff plate agar diffusion method; assay type: functional
[16] = system: MCF7; assay: Antiproliferative activity against human MCF7 after 24 hrs by MTT assay; assay type: functional, cell-based; settings: MCF7, 24 h
[17] = system: HeLa; assay: Antiproliferative activity against human HeLa after 24 hrs by MTT assay; assay type: functional, cell-based
[18] = system: PC-3; assay: Antiproliferative activity against human PC3 after 24 hrs by MTT assay; assay type: functional, cell-based; settings: PC-3, 24 h
[19] = system: HepG2; assay: Antiproliferative activity against human HepG2 after 24 hrs by MTT assay; assay type: functional, cell-based; settings: HepG2, 24 h
[20] = Inhibition of PTK (unknown origin) using poly-Glu-Tyr (PGT) as substrate by ELISA; set-up: species or system Homo sapiens
[21] = system: HEp-2; assay: Antiproliferative activity against human Hep2 after 24 hrs by MTT assay; assay type: functional, cell-based; settings: HEp-2, 24 h
[22] = system: MCF7; assay: Antiproliferative activity against human MCF7 after 18 hrs by MTT assay; assay type: functional, cell-based; settings: MCF7, 18 h
[23] = system: HCT-116; assay: Antiproliferative activity against human HCT116 after 18 hrs by MTT assay; assay type: functional, cell-based; settings: HCT-116, 18 h
[24] = system: A549; assay: Antiproliferative activity against human A549 after 18 hrs by MTT assay; assay type: functional, cell-based; settings: A549, 18 h
[25] = system: Rhodococcus fascians; assay: Antibacterial activity against Mycobacterium luteum assessed as diameter of zone inhibition at 0.5% incubated for 24 hrs by stiff plate agar diffusion method; assay type: functional, Rhodococcoides fascians
[26] = system: Staphylococcus aureus; assay: Antibacterial activity against Staphylococcus aureus assessed as diameter of zone inhibition at 0.5% incubated for 24 hrs by stiff plate agar diffusion method; assay type: functional
[27] = system: Candida albicans; assay: Antifungal activity against Candida albicans ATCC 653/885 assessed as diameter of zone inhibition at 30 ug/ml; assay type: functional; settings: read-out: DIZ
[28] = system: Staphylococcus aureus; assay: Antibacterial activity against Staphylococcus aureus ATCC 25923 assessed as diameter of zone inhibition at 30 ug/ml; assay type: functional; settings: read-out: DIZ
[29] = system: Escherichia coli; assay: Antibacterial activity against Escherichia coli ATCC 25922 assessed as diameter of zone inhibition at 30 ug/ml; assay type: functional; settings: read-out: DIZ
[30] = system: Bacillus subtilis; assay: Antibacterial activity against Bacillus subtilis ATCC 6633 assessed as diameter of zone inhibition at 30 ug/ml; assay type: functional; settings: read-out: DIZ
[31] = system: Rattus norvegicus; assay: Antiinflammatory activity in Sprague-Dawley rat assessed as inhibition of carrageenan-induced edema at 10 mg/kg, po pretreated for 1 hr followed by carrageenan challenge and measured after 4 hrs by mercury plethysmometer relative to control; assay type: functional

SMILES: Cc1c(-c2nnc(-c3ccccc3)o2)sc2c1c(=O)n(-c1ccccc1)c(=O)n2Cc1nc(-c2ccccc2Cl)no1
zone of inhibition at 100 µg/mL [1]: 17 mm
zone of inhibition at 100 µg/mL [2]: 15 mm
zone of inhibition at 100 µg/mL [3]: 14 mm

SMILES: Cc1c(-c2nnc(-c3ccccc3)o2)sc2c1c(=O)n(-c1ccccc1)c(=O)n2Cc1nc(-c2ccccc2)no1
zone of inhibition at 100 µg/mL [1]: 17 mm
zone of inhibition at 100 µg/mL [2]: 15 mm
zone of inhibition at 100 µg/mL [3]: 14 mm

MIC [4]: 31.2 mg/L (≈ 101 µM)
SMILES: CCOC(=O)CSc1ncnc2sc(CC)c(CC)c12

GI50 [5]: > 10 µM
GI50 [6]: 4.3 µM
GI50 [7]: > 10 µM
GI50 [8]: 1.3 µM
GI50 [9]: 9.2 µM
GI50 [10]: 10.2 µM
GI50 [11]: > 10 µM
GI50 [12]: 1.6 µM
SMILES: O=C(Nc1cccc(Nc2ncnc3sccc23)c1)c1ccc(F)cc1

GI50 [5]: 0.9 µM
GI50 [6]: 4.6 µM
GI50 [7]: > 10 µM
GI50 [8]: 3.1 µM
GI50 [9]: 5.4 µM
GI50 [10]: 5.8 µM
GI50 [11]: 5.1 µM
GI50 [12]: 0.8 µM
SMILES: O=C(/C=C/c1cccc(C(F)(F)F)c1)Nc1cccc(Nc2ncnc3sccc23)c1

SMILES: CCCCCc1sc2nc[nH]c(=[Se])c2c1CCCCC
diameter of the inhibition zone (DIZ) [13]: 12 mm
MIC [4]: 31.2 mg/L (≈ 87.8 µM)
diameter of the inhibition zone (DIZ) [14]: 22 mm
diameter of the inhibition zone (DIZ) [15]: 14 mm

SMILES: Cc1sc2nc[nH]c(=[Se])c2c1C
diameter of the inhibition zone (DIZ) [14]: 12 mm
diameter of the inhibition zone (DIZ) [15]: 14.7 mm

IC50 [16]: 6.84 µM
IC50 [17]: 4.3 µM
IC50 [18]: 7.71 µM
IC50 [19]: 7.99 µM
IC50 [20]: 136 µM
SMILES: Cc1ccc(/C=C/C(=O)c2sc3nc(S)n(-c4ccccc4)c(=O)c3c2C)cc1
IC50 [21]: 5.4 µM

SMILES: Cc1c(-c2nnc(-c3ccccc3)o2)sc2c1c(=O)n(-c1ccccc1)c(=O)n2Cc1nc(-c2ccc(Cl)cc2)no1
zone of inhibition at 100 µg/mL [1]: 17 mm
zone of inhibition at 100 µg/mL [2]: 15 mm
zone of inhibition at 100 µg/mL [3]: 14 mm

IC50 [16]: 17.1 µM
IC50 [17]: 12.9 µM
IC50 [18]: 16.4 µM
IC50 [19]: 20.6 µM
IC50 [20]: 203 µM
SMILES: COc1cc(/C=C/C(=O)c2sc3nc(S)n(-c4ccccc4)c(=O)c3c2C)cc(OC)c1OC
IC50 [21]: 22.1 µM

IC50 [22]: 13.5 µM
IC50 [23]: 53.9 µM
IC50 [24]: 144 µM
SMILES: Cc1ccc(-c2cc(COc3ncnc4sc(C)cc34)on2)cc1

SMILES: CCc1sc2ncnc(SCC(=O)NS(=O)(=O)c3ccc(Cl)cc3)c2c1CC
diameter of the inhibition zone (DIZ) [25]: 17 mm
diameter of the inhibition zone (DIZ) [26]: 12 mm

SMILES: Cc1ncc([N+](=O)[O-])n1CCO [METRONIDAZOLE]
zone of inhibition at 30 µg/mL [27]: 14 mm
zone of inhibition at 30 µg/mL [28]: 14 mm
zone of inhibition at 30 µg/mL [29]: 14 mm
zone of inhibition at 30 µg/mL [30]: 16 mm

SMILES: COc1ccc2c(c1)c(CC(=O)O)c(C)n2C(=O)c1ccc(Cl)cc1 [INDOMETHACIN]
inhibition in vivo at 10 mg/kg [31]: 49.1%

GI50 [5]: 8.2 µM
GI50 [6]: 8.6 µM
GI50 [7]: > 10 µM
GI50 [8]: > 10 µM
GI50 [9]: 7.5 µM
GI50 [10]: 3.5 µM
GI50 [11]: 3.6 µM
GI50 [12]: 3.3 µM
SMILES: Cc1ccc([N+](=O)[O-])c(C(=O)Nc2cccc(Nc3ncnc4sccc34)c2)c1

SMILES: CN[C@@H]1[C@H](O[C@H]2[C@H](O[C@H]3[C@H](O)[C@@H](O)[C@H](N=C(N)N)[C@@H](O)[C@@H]3N=C(N)N)O[C@@H](C)[C@]2(O)C=O)O[C@@H](CO)[C@H](O)[C@H]1O [STREPTOMYCIN]
zone of inhibition at 30 µg/mL [28]: 15 mm
zone of inhibition at 30 µg/mL [29]: 16 mm
zone of inhibition at 30 µg/mL [30]: 17 mm
